Biological target: T1, ABCG2 (Homo sapiens, UniProt Q9UNQ0)
T1 construct: membrane vesicles of High Five insect cells
T1 sequence (Q9UNQ0 1-655): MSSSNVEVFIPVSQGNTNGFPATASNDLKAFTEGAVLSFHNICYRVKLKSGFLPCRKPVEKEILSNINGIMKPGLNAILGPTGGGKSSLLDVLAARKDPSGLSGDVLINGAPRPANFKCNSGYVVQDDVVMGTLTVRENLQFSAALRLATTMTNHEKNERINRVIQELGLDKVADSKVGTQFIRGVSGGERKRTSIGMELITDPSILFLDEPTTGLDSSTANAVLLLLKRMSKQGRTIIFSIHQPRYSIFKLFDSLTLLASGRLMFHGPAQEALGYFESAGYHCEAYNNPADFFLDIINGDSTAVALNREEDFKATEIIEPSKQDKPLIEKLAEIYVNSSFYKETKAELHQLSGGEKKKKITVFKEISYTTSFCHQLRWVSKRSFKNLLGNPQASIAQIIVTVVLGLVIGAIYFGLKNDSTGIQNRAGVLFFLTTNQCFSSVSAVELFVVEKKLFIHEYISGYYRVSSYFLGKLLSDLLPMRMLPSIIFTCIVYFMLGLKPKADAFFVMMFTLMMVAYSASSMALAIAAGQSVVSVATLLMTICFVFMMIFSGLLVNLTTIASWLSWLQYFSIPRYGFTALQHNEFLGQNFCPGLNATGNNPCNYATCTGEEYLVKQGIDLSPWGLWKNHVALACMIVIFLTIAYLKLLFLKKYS
Test: biochemical

EC50: 2200 nM
Structure (SMILES): C=CC(=O)Nc1cccc(Oc2nc(Nc3ccc(N4CCN(C)CC4)cc3)nc3ccsc23)c1 [olmutinib]
